Values quoted from earlier work in patent US20070281009A1, “N-Acetylglucosamine Tablet Disintegrating In Oral Cavity And Process For Producing The Same” (Yaizu Suisankagaku Industry Co., Ltd., priority 2004, published 2007).

Key:
skin beauty = settings: human, oral, 1,000 mg/day
arthropathy = settings: human, 500 mg/day or 1,000 mg/day dissolved in milk
[1] = test system: synthesis of hyaluronic acid

Compound	Effect on enhancing skin beauty (skin beauty)	Effect of ameliorating arthropathy (arthropathy)	Ability to promote synthesis of hyaluronic acid [1]
CC(=O)N[C@H]1C(O)O[C@H](CO)[C@@H](O)[C@@H]1O (stereo partly drawn) [N-acetylglucosamine]	effective	confirmed to provide an effect of ameliorating arthropathy	
CC1=C(/C=C/C(C)=C/C=C/C(C)=C/C=C/C=C(C)/C=C/C=C(C)/C=C/C2=C(C)CCCC2(C)C)C(C)(C)CCC1 [β-carotene]			known to have an ability to promote synthesis of hyaluronic acid
